Columns and labels:
[1] = system: broad panel of cancer cell lines; assay: Anti-tumor activity of the single agent in a panel of cancer cell lines; format: cell-based
Experimental: The cell lines were grown in the media recommended by the suppliers in the presence of 100 U/ml penicillinG and 100 μg/ml streptomycin supplied with 10% FCS (PAN, Germany).
Cell growth and treatment were performed in 96-well microtitre plates. Cells harvested from exponential phase cultures by trypsinization were plated in 190 μl of media at optimal seeding densities. The optimal seeding densities for each cell line were determined to ensure exponential growth for the duration of the experiment. All cells growing without anticancer agents were sub-confluent by the end of the treatment as determined by visual inspection. Compound dilutions in DMSO were performed in 96-well rigid PCR plates. Compounds were then diluted […] in RPMI medium. 190 μl of cells, after a 24-hour pre-growth period, were treated by mixing with 10 μl of the compound-containing media (resulting in a final DMSO concentration of 0.1%). The cells were allowed to grow at 37° C. for 72 hours. In addition, all experiments contained a few plates with cells that were processed for measurement immediately after the 24 hours recovery period. These plates contained information about the cell number that existed before treatment, at time zero, and served to calculate the cytotoxicity and/or growth inhibitory effects. […] Measurement of optical density was performed at 560 nm on a Victor 2 plate reader (Perkin Elmer, Germany). […]

[2] = system: Her2+ patient-derived breast model "CTG-0033"; assay: Patient derived xenograft model of breast cancer, tumor volume efficacy study; format: in vivo, mice
Description: Female nude (Harlan; nu/nu) between 5-7 weeks were implanted subcutaneously with tumor fragments from the Her2+ patient-derived breast model “CTG-0033” (passage 3, i.e. the model has been serially passaged/grown from the original host 3 times) harvested from host animals. When host tumors reached 1-1.5 cm^3, tumors were harvested for re-implantation into animals to be used for the efficacy study. When the CTG-0033 (passage 4) tumors reached approximately 190 mm^3; animals were randomized by tumor volume into treatment or control groups (n=10) and dosing was initiated on Day 0. […] Tumor volumes were recorded twice per week. […] The other treatments were stopped at Day 75 and tumors were allowed to grow back for over 2 months with mice receiving no treatment.

With `NC(=O)c1cccc2c(N[C@H](CN3CCC3)c3ccc(Cl)c(C(F)(F)F)c3)ncnc12` [Compound A, 4-[(S)-2-Azetidin-1-yl-1-(4-chloro-3-trifluoromethyl-phenyl)-ethylamino]-quinazoline-8-carboxylic acid amide] the “anti-tumor activity against a broad panel of cancer cell lines” value [1] was “potent anti-tumor activity”, the “sensitivity of cancer cells to the compound” value ([1]; breast cancer cells, glioblastoma cells, endometrial cancer cells and ovarian carcinoma cells) was “particularly sensitive” and the tumor regression ([2]; Day 55, Compound A 30 mg/kg QD PO, Herceptin 15 mg/kg QW IV in the combination, CTG-0033 tumors in female nude mice) was 50%. For the same compound, the tumor regression ([2]; Day 76, after treatment until Day 75) was −66% and the “number of treated tumors that grew back” value ([2]; after 71 days of regrowth period after cessation of treatment, log rank sum test p<0.05) was 6.

Reference: US9980966B2, “Combinations of cancer therapeutics” (Merck Patent GmbH, priority 2014, dated 2018)
